Source: article PMC10935503 (Acta Pharmaceutica Sinica. B, 2023)

Columns and labels:
Type in all cases: cell-based
[1] = Cytotoxicity in mock-infected MT-4 cells, MTT method; settings: human
[2] = tested on: HIV-1 K103N + Y181C (RES056); experiment: microbe, parasite or virus in culture; settings: for EC50: Human immunodeficiency virus 1, MT4, read-out: EC50 RES056; for RF RES056: resistance fold, EC50 (mutant strain)/EC50 (WT strain); for SI RES056: selectivity index, ratio of CC50/EC50
HIV-1 WT strain (IIIB) = experiment: Anti-HIV-1 activity in MT-4 cells, MTT method, WT strain IIIB; settings: for EC50: Human immunodeficiency virus 1, IIIB, MT4, read-out: EC50 IIIB
HIV-1 Y181C = experiment: microbe, parasite or virus in culture; settings: for EC50: Human immunodeficiency virus 1, MT4, read-out: EC50 Y181C; for RF Y181C: resistance fold, EC50 (mutant strain)/EC50 (WT strain); for SI Y181C: selectivity index, ratio of CC50/EC50
HIV-1 L100I = experiment: microbe, parasite or virus in culture; settings: for EC50: Human immunodeficiency virus 1, MT4, read-out: EC50 L100I; for RF L100I: resistance fold, EC50 (mutant strain)/EC50 (WT strain); for SI L100I: selectivity index, ratio of CC50/EC50
HIV-1 K103N = experiment: microbe, parasite or virus in culture; settings: for EC50: Human immunodeficiency virus 1, MT4, read-out: EC50 K103N; for RF K103N: resistance fold, EC50 (mutant strain)/EC50 (WT strain); for SI K103N: selectivity index, ratio of CC50/EC50
HIV-1 E138K = experiment: microbe, parasite or virus in culture; settings: for EC50: Human immunodeficiency virus 1, MT4, read-out: EC50 E138K; for RF E138K: resistance fold, EC50 (mutant strain)/EC50 (WT strain); for SI E138K: selectivity index, ratio of CC50/EC50
HIV-1 Y188L = experiment: microbe, parasite or virus in culture; settings: for EC50: Human immunodeficiency virus 1, MT4, read-out: EC50 Y188L; for RF Y188L: resistance fold, EC50 (mutant strain)/EC50 (WT strain); for SI Y188L: selectivity index, ratio of CC50/EC50
HIV-1 F227L + V106A = experiment: microbe, parasite or virus in culture; settings: for EC50: Human immunodeficiency virus 1, MT4, read-out: EC50 F227L + V106A; for RF F227L + V106A: resistance fold, EC50 (mutant strain)/EC50 (WT strain); for SI F227L + V106A: selectivity index, ratio of CC50/EC50

Cc1cc(C#N)cc(C)c1Oc1nc(Nc2ccc(C#N)cc2)nc2c1[S+]([O-])CCC2 (centres unmarked) [16a, 4-((2-((4-Cyanophenyl)amino)-5-oxido-7,8-dihydro-6H-thiopyrano[3,2-d]pyrimidin-4-yl)oxy)-3,5-dimethylbenzonitrile]
CC50 at 5 days [1]: ≥ 19700 nM | EC50 [2]: 445 ± 95.7 nM | EC50 (HIV-1 WT strain (IIIB)): 7.99 ± 0.95 nM

Cc1cc(C#N)cc(C)c1Oc1nc(N2CCN(Cc3ccc(S(N)(=O)=O)cc3)CC2)nc2c1SCCC2 [19a, 4-((4-(4-(4-Cyano-2,6-dimethylphenoxy)-7,8-dihydro-6H-thiopyrano[3,2-d]pyrimidin-2-yl)piperazin-1-yl)methyl)benzenesulfonamide]
CC50 at 5 days [1]: 19300 ± 3040 nM | EC50 (HIV-1 WT strain (IIIB)): > 3080 nM | EC50 IIIB (HIV-1 WT strain (IIIB); MT-4 cells, MTT method, HIV-1 IIIB (WT)): lost potency

Cc1cc(C#N)cc(C)c1Oc1nc(NCCn2ccc(=O)[nH]c2=O)nc2c1SCCC2 [20a, 4-((2-((2-(2,4-Dioxo-3,4-dihydropyrimidin-1(2H)-yl)ethyl)amino)-7,8-dihydro-6H-thiopyrano[3,2-d]pyrimidin-4-yl)oxy)-3,5-dimethylbenzonitrile]
CC50 at 5 days [1]: > 284000 nM | EC50 [2]: > 248000 nM | EC50 (HIV-1 WT strain (IIIB)): 233 ± 158 nM

Cc1cc(/C=C/C#N)cc(C)c1Oc1nc(NCCn2ccc(=O)[nH]c2=O)nc2c1SCCC2 [20b, (E)-3-(4-((2-((2-(2,4-Dioxo-3,4-dihydropyrimidin-1(2H)-yl)ethyl)amino)-7,8-dihydro-6H-thiopyrano[3,2-d]pyrimidin-4-yl)oxy)-3,5-dimethylphenyl)acrylonitrile]
CC50 at 5 days [1]: 142000 ± 31100 nM | EC50 [2]: 22700 nM | EC50 (HIV-1 WT strain (IIIB)): 20 ± 19.8 nM

Cc1cc(C)c(Oc2nc(NCCn3ccc(=O)[nH]c3=O)nc3c2SCCC3)c(C)c1 [20c, 1-(2-((4-(Mesityloxy)-7,8-dihydro-6H-thiopyrano[3,2-d]pyrimidin-2-yl)amino)ethyl)pyrimidine-2,4(1H,3H)-dione]
CC50 at 5 days [1]: 152000 ± 28300 nM | EC50 [2]: > 152000 nM | EC50 (HIV-1 WT strain (IIIB)): 523 ± 466 nM

Cc1cc(C#N)cc(C)c1Oc1nc(NC2CCN(Cc3ccc(C#N)cc3)CC2)nc2c1SCCC2 [23a, 4-((2-((1-(4-Cyanobenzyl)piperidin-4-yl)amino)-7,8-dihydro-6H-thiopyrano[3,2-d]pyrimidin-4-yl)oxy)-3,5-dimethylbenzonitrile]
CC50 at 5 days [1]: 3760 ± 320 nM | EC50 [2]: 263 ± 97.1 nM | EC50 (HIV-1 WT strain (IIIB)): 4.44 ± 1.39 nM

Cc1cc(C#N)cc(C)c1Oc1nc(NC2CCN(Cc3ccccc3C#N)CC2)nc2c1SCCC2 [23c, 4-((2-((1-(2-Cyanobenzyl)piperidin-4-yl)amino)-7,8-dihydro-6H-thiopyrano[3,2-d]pyrimidin-4-yl)oxy)-3,5-dimethylbenzonitrile]
CC50 at 5 days [1]: 3860 ± 1140 nM | EC50 [2]: 1160 ± 184 nM | EC50 (HIV-1 WT strain (IIIB)): 7.1 ± 2.69 nM

Cc1cc(C#N)cc(C)c1Oc1nc(NC2CCN(Cc3cccc(S(N)(=O)=O)c3)CC2)nc2c1SCCC2 [23d, 3-((4-((4-(4-Cyano-2,6-dimethylphenoxy)-7,8-dihydro-6H-thiopyrano[3,2-d]pyrimidin-2-yl)amino)piperidin-1-yl)methyl)benzenesulfonamide]
CC50 at 5 days [1]: 5610 ± 3420 nM | EC50 [2]: 790 ± 134 nM | EC50 (HIV-1 WT strain (IIIB)): 4.65 ± 0.65 nM

CCOC(=O)c1ccc(CN2CCC(Nc3nc4c(c(Oc5c(C)cc(C#N)cc5C)n3)SCCC4)CC2)cc1 [23e, Ethyl 4-((4-((4-(4-cyano-2,6-dimethylphenoxy)-7,8-dihydro-6H-thiopyrano[3,2-d]pyrimidin-2-yl)amino)piperidin-1-yl)methyl)benzoate]
CC50 at 5 days [1]: 65300 ± 39800 nM | EC50 [2]: 4830 ± 517 nM | EC50 (HIV-1 WT strain (IIIB)): 14.8 ± 13.5 nM

Cc1cc(C#N)cc(C)c1Oc1nc(NC2CCN(Cc3ccc(N)cc3)CC2)nc2c1SCCC2 [23f, 4-((2-((1-(4-Aminobenzyl)piperidin-4-yl)amino)-7,8-dihydro-6H-thiopyrano[3,2-d]pyrimidin-4-yl)oxy)-3,5-dimethylbenzonitrile]
EC50 (HIV-1 Y181C): 14.7 ± 1.17 nM | RF Y181C (HIV-1 Y181C): 2.1 | SI Y181C (HIV-1 Y181C): 816 | EC50 (HIV-1 L100I): 55.6 ± 2.68 nM | RF L100I (HIV-1 L100I): 7.9 | SI L100I (HIV-1 L100I): 216 | EC50 (HIV-1 K103N): 8.69 nM | RF K103N (HIV-1 K103N): 1.2 | SI K103N (HIV-1 K103N): 1381 | CC50 at 5 days [1]: 12000 ± 6470 nM | EC50 [2]: 653 ± 236 nM | RF RES056 [2]: 93.3 | SI RES056 [2]: 18 | EC50 (HIV-1 E138K): 21.6 ± 0.56 nM | RF E138K (HIV-1 E138K): 3.0 | SI E138K (HIV-1 E138K): 556 | EC50 (HIV-1 Y188L): 26.1 ± 3.53 nM | RF Y188L (HIV-1 Y188L): 3.7 | SI Y188L (HIV-1 Y188L): 460 | EC50 (HIV-1 F227L + V106A): 184 ± 8.33 nM | RF F227L + V106A (HIV-1 F227L + V106A): 26.3 | SI F227L + V106A (HIV-1 F227L + V106A): 65 | EC50 (HIV-1 WT strain (IIIB)): 7 ± 1.04 nM

Cc1cc(C#N)cc(C)c1Oc1nc(NC2CCN(Cc3ccc(NS(C)(=O)=O)cc3)CC2)nc2c1SCCC2 [23g, N-(4-((4-((4-(4-cyano-2,6-dimethylphenoxy)-7,8-dihydro-6H-thiopyrano[3,2-d]pyrimidin-2-yl)amino)piperidin-1-yl)methyl)phenyl)methanesulfonamide]
EC50 (HIV-1 Y181C): ≤ 8.29 nM | RF Y181C (HIV-1 Y181C): ≤ 3.5 | SI Y181C (HIV-1 Y181C): ≥ 467 | EC50 (HIV-1 L100I): 28 ± 5.38 nM | RF L100I (HIV-1 L100I): 11.8 | SI L100I (HIV-1 L100I): ≥ 138 | EC50 (HIV-1 K103N): 4.59 ± 0.45 nM | RF K103N (HIV-1 K103N): 1.9 | SI K103N (HIV-1 K103N): ≥ 843 | CC50 at 5 days [1]: ≥ 3870 nM | EC50 [2]: 326 ± 185 nM | RF RES056 [2]: 138 | SI RES056 [2]: ≥ 12 | EC50 (HIV-1 E138K): 8.66 ± 0.54 nM | RF E138K (HIV-1 E138K): 3.7 | SI E138K (HIV-1 E138K): ≥ 447 | EC50 (HIV-1 Y188L): 12.7 ± 2.99 nM | RF Y188L (HIV-1 Y188L): 5.4 | SI Y188L (HIV-1 Y188L): ≥ 305 | EC50 (HIV-1 F227L + V106A): 165 ± 40.8 nM | RF F227L + V106A (HIV-1 F227L + V106A): 69.6 | SI F227L + V106A (HIV-1 F227L + V106A): ≥ 23 | EC50 (HIV-1 WT strain (IIIB)): 2.37 ± 1.98 nM

Cc1cc(C)c(Oc2nc(NC3CCN(Cc4ccc(S(N)(=O)=O)cc4)CC3)nc3c2SCCC3)c(C)c1 [23i, 4-((4-((4-(Mesityloxy)-7,8-dihydro-6H-thiopyrano[3,2-d]pyrimidin-2-yl)amino)piperidin-1-yl)methyl)benzenesulfonamide]
EC50 (HIV-1 Y181C): 35.7 ± 5.75 nM | RF Y181C (HIV-1 Y181C): 6.6 | SI Y181C (HIV-1 Y181C): ≥ 6331 | EC50 (HIV-1 L100I): 39.2 ± 7.66 nM | RF L100I (HIV-1 L100I): 7.2 | SI L100I (HIV-1 L100I): ≥ 5765 | EC50 (HIV-1 K103N): 6.56 ± 1.07 nM | RF K103N (HIV-1 K103N): 1.2 | SI K103N (HIV-1 K103N): ≥ 34,451 | CC50 at 5 days [1]: ≥ 226000 nM | EC50 [2]: 442 ± 272 nM | RF RES056 [2]: 81.4 | SI RES056 [2]: ≥ 511 | EC50 (HIV-1 E138K): 37.6 ± 7.41 nM | RF E138K (HIV-1 E138K): 6.9 | SI E138K (HIV-1 E138K): ≥ 6011 | EC50 (HIV-1 Y188L): 43 ± 0.26 nM | RF Y188L (HIV-1 Y188L): 7.9 | SI Y188L (HIV-1 Y188L): ≥ 5256 | EC50 (HIV-1 F227L + V106A): 64.7 ± 13.3 nM | RF F227L + V106A (HIV-1 F227L + V106A): 11.9 | SI F227L + V106A (HIV-1 F227L + V106A): ≥ 3493 | EC50 (HIV-1 WT strain (IIIB)): 5.43 ± 4.4 nM

Cc1cc(C#N)cc(C)c1Oc1nc(NCCN2CCOCC2)nc2c1SCCC2 [compound 20d, 3,5-Dimethyl-4-((2-((2-morpholinoethyl)amino)-7,8-dihydro-6H-thiopyrano[3,2-d]pyrimidin-4-yl)oxy)benzonitrile]
CC50 at 5 days [1]: 20500 ± 11300 nM | EC50 (HIV-1 WT strain (IIIB)): 5690 ± 4760 nM

Cc1cc(C#N)cc(C)c1Oc1nc(NC2CCN(Cc3cccc(C#N)c3)CC2)nc2c1SCCC2 [compound 23b, 4-((2-((1-(3-Cyanobenzyl)piperidin-4-yl)amino)-7,8-dihydro-6H-thiopyrano[3,2-d]pyrimidin-4-yl)oxy)-3,5-dimethylbenzonitrile]
CC50 at 5 days [1]: 3780 ± 630 nM | EC50 [2]: 764 ± 86.1 nM | EC50 (HIV-1 WT strain (IIIB)): 6 ± 1.03 nM

Cc1cc(C#N)cc(C)c1Oc1nc(NC2CCN(c3cccc(C#N)c3)CC2)nc2c1SCCC2 [compound 27a, 4-((2-((1-(3-Cyanophenyl)piperidin-4-yl)amino)-7,8-dihydro-6H-thiopyrano[3,2-d]pyrimidin-4-yl)oxy)-3,5-dimethylbenzonitrile]
CC50 at 5 days [1]: 8390 ± 5220 nM | EC50 [2]: 836 ± 290 nM | EC50 (HIV-1 WT strain (IIIB)): 10.2 ± 7.57 nM
